Laboratory results taken from paper PMC8389907 (Journal of Medicinal Chemistry, 2021).
In brackets after ≈: the same amount, converted by molar mass. Where two headings read alike, the source gives them in different places.

Experiments:
MDA-MB231 cells = assay: MTT cell viability assay, MDA-MB231; assay type: cell-based; conditions: Homo sapiens, MDA-MB-231; 72 h treatment, MTT; read-out: IC50 MDA-MB231
Experimental: (§1) The cell lines DU145 (HTB-81, human prostate carcinoma), PC3 (CRL-1435, human prostate adenocarcinoma), MCF7 (HTB-22, human breast adenocarcinoma), MDA-MB231 (HTB-26, human breast adenocarcinoma), and HCT116 (CCL-247, human colorectal carcinoma) were obtained from ATCC (American Type Culture Collection, Manassas, VA, USA); WH1 human fibroblasts were kindly provided by Dr. Guven.[51] All the cells were maintained under standard culture conditions (37 °C; 5% CO2) in the RMPI1640 medium (PC3, MCF7, and MDA-MB231 cells), while DU145 and HCT116 cells were in the DMEM and Iscove’s medium (WH1 cells) supplemented with 10% fetal calf serum, 1% glutamine, and 1% antibiotics mixture; for HCT116 and DU145 cells, 1% sodium pyruvate and 1% non-essential amino acids were also added to the culture medium.
(§2) The 3-(4,5-dimethylthiazol-2-yl)-2,5-diphenyltetrazolium bromide (MTT) assay was performed on all the cell lines tested as previously described[52] with minor modifications. Briefly, according to the growth profiles previously defined for each cell line, adequate numbers of cells were plated in each well of a 96-well plate in 0.1 mL of complete culture medium. Cells were allowed to attach for 24 h before the treatment at 37 °C for 72 h with the compounds at concentrations ranging between 0.1 and 75 μM, bringing the final volume to 0.2 mL/well. Each experiment included eight replications per concentration tested; control samples were run with 0.2% DMSO. At the end of the incubation period, MTT (0.05 mL of a 2 mg/mL stock solution in PBS) was added to each well for 3 h at 37 °C. Cell supernatants were then carefully removed, the blue formazan crystals formed through MTT reduction by metabolically active cells were dissolved in 0.120 mL of DMSO, and the corresponding optical densities were measured at 570 nm using a Universal Microplate Reader EL800 (Bio-Tek, Winooski, VT).
(§3) IC50 values were estimated from the resulting concentration–response curves by nonlinear regression analysis using GraphPad Prism software, v. 5.0 (GraphPad, San Diego, CA, USA). Differences between IC50 values were evaluated statistically by analysis of variance with a Bonferroni post-test for multiple comparisons.

PC3 cells [1] = assay: MTT cell viability assay, PC3; assay type: cell-based; conditions: Homo sapiens, PC-3; 72 h treatment, MTT; read-out: IC50 PC3
Experimental: as §1, §2, §3

P. aeruginosa PAO1 [2] = assay: Minimum inhibitory concentration, broth dilution; assay type: cell-based; conditions: Pseudomonas aeruginosa; 24 h incubation at 37 °C, strain PAO1
Experimental: P. aeruginosa PAO1 was chosen as a model microorganism[53] and was grown overnight in a Luria Bertani (LB) medium at 37 °C on an orbital shaker at 200 rpm. Minimum inhibitory concentrations (MICs) of quinolone and quinolone derivatives were determined against P. aeruginosa PAO1 by a broth dilution method. Overnight cultures were diluted 100-fold to give a cellular concentration of 10^7 CFU/mL. […] The assays were performed at least three times.

HCT116 cells = assay: MTT cell viability assay, HCT116; assay type: cell-based; conditions: Homo sapiens, HCT-116
Experimental: as §1, §2, §3

DU145 cells [3] = assay: MTT cell viability assay, DU145; assay type: cell-based; conditions: Homo sapiens, DU-145
Experimental: as §1, §2, §3

MCF7/ADR cells = assay: MTT cell viability assay, DOX-resistant MCF7/ADR; assay type: cell-based, human; conditions: for IC50: Homo sapiens, NCI/ADR-RES, 72 h treatment, MTT; for R.I. (resistance index): MCF7/ADR vs MCF7
Experimental: as §2, §3

MCF7 cells = assay: MTT cell viability assay, MCF7; assay type: cell-based; conditions: Homo sapiens, 72 h treatment, MTT, read-out: IC50 MCF7
Experimental: as §1, §2, §3

HBL100 cells = assay: MTT cell viability assay, non-tumorigenic HBL100; assay type: cell-based; conditions: Homo sapiens, HBL-100, 72 h treatment
Experimental: as §2, §3

WH1 human fibroblasts = assay: MTT cell viability assay, WH1 fibroblasts; assay type: cell-based; conditions: Fibroblast, 72 h treatment
Experimental: as §1, §2, §3

DU145 cells [4] = assay: MTT assay with 1 h irradiation, DU145; assay type: cell-based, human; conditions: 24 h treatment, 1 h white or blue light, 48 h drug-free medium
Experimental: (§4) To evaluate the contribution of NO release on cell viability, the MTT assay was performed on DU145 and PC3 cells following treatment with 7b and 7c with 1 h irradiation and 48 h incubation in a drug-free medium.
as §3

PC3 cells [5] = assay: MTT assay with 1 h irradiation, PC3; assay type: cell-based, human; conditions: 24 h treatment, 1 h white or blue light, 48 h drug-free medium
Experimental: as §4, §3

P. aeruginosa PAO1 [6] = assay: Antimicrobial photo-inactivation test, P. aeruginosa; assay type: cell-based, Pseudomonas aeruginosa; conditions: 10 μM, 10 min dark incubation, 405 ± 10 nm, 20 J/cm^2
Experimental: (§5) Upon the overnight growth of P. aeruginosa PAO1 and S. aureus ATCC6538P (methicillin susceptible S. aureus, MSSA), cultures were diluted in phosphate buffer (PBS–KH2PO4/K2HPO4, 10 mM, pH 7.4) to reach a concentration of ∼10^6 CFU/mL. Compound 7c was added to a cell suspension at a final concentration of 10 μM. Cells were incubated in the dark for 10 min and then irradiated under light at […] (20 J/cm^2) or incubated in the dark as a control. Soon after irradiation, the bacterial concentration was evaluated by the viability count technique. Briefly, an aliquot of each sample was 10-fold serially diluted in PBS and a volume of 10 μL of each diluted and undiluted sample was inoculated on LB agar. After overnight incubation at 37 °C, the corresponding cellular concentration was calculated and expressed as CFU/mL.

S. aureus ATCC 6538P = assay: Antimicrobial photo-inactivation test, S. aureus; assay type: cell-based, Staphylococcus aureus; conditions: 10 μM, 10 min dark incubation, blue light 20 J/cm^2
Experimental: as §5

[7] = 72 h treatment, MTT, read-out: IC50 HCT116
[8] = 72 h treatment, MTT, read-out: IC50 DU145

SMILES | IC50 (MDA-MB231 cells) [µM] | IC50 (PC3 cells [1]) [µM] | MIC (P. aeruginosa PAO1 [2]) [µg/mL] | IC50 (HCT116 cells; [7]) [µM] | IC50 (DU145 cells [3]; [8]) [µM] | IC50 (MCF7/ADR cells) [µM] | IC50 (MCF7 cells) [µM] | IC50 (HBL100 cells) [µM] | IC50 (WH1 human fibroblasts) [µM] | IC50 (HCT116 cells; supplement csv, unit inferred, read-out: HCT116 IC50) [µM] | IC50 (DU145 cells [3]; supplement csv, unit inferred, read-out: DU145 IC50) [µM] | IC50, irradiated vs kept in the dark, DU145 (DU145 cells [4]) | R.I. (resistance index) (MCF7/ADR cells) | IC50, irradiated vs kept in the dark, PC3 (PC3 cells [5]) | antimicrobial activity upon blue light irradiation (P. aeruginosa PAO1 [6]) | decrease in viable S. aureus with respect to the dark incubated control (S. aureus ATCC 6538P) [log unit]
O=C(O)c1cn(C2CC2)c2cc(N3CCNCC3)c(F)cc2c1=O [Cip, Ciprofloxacin, reference compound] | 19.9 ± 3.6 | 33.9 ± 2.9 | 1.82 ± 1.19 (≈ 5.49 µM) | 31.5 ± 1.5 | 24.9 ± 0.8 | 19.1 ± 0.5 | 8.85 ± 0.09 |  |  |  |  |  |  |  |  | 
CCn1cc(C(=O)O)c(=O)c2cc(F)c(N3CCN(CCNc4ccc([N+](=O)[O-])c(C(F)(F)F)c4)CC3)cc21 [Compound 7c, 1-Ethyl-6-fluoro-7-(4-(2-((4-nitro-3-(trifluoromethyl)phenyl)amino)ethyl)piperazin-1-yl)-4-oxo-1,4-dihydroquinoline-3-carboxylic Acid] | 1.52 | 2.33 |  |  |  | 18.3 ± 1.4 | 2.27 | 11.1 ± 0.2 | 3.51 ± 0.4 | 2.15 ± 0.39 | 1.57 ± 0.59 | no differences in IC50 values | 8.1 | no differences in IC50 values | did not show any antimicrobial activity | 2
CCn1cc(C(=O)O)c(=O)c2cc(F)c(N3CCNCC3)cc21 [Nor, Norfloxacin, reference compound] | 14.9 ± 2.7 | 33.6 ± 3 | 4.16 ± 1.8 (≈ 13 µM) | 12.5 ± 2.6 | 12 ± 0.6 | 20.1 ± 1.4 | 19.4 ± 0.7 | 12.4 ± 0.8 | 14.1 ± 2.1 |  |  |  | 1.0 |  |  | 
